Values quoted from earlier work, collected in publication PMC6005628, “Molecular genetic characteristics of influenza A virus clinically isolated during 2011‐2016 influenza seasons in Korea” (Influenza and Other Respiratory Viruses, 2018).

Tested on: NA protein with single I222V/M substitution

For `CCOC(=O)C1=C[C@@H](OC(CC)CC)[C@H](NC(C)=O)[C@@H](N)C1` [oseltamivir], the “resistance associated with NA substitution” value is given as “marginal levels of resistance”.
